Experimental findings from a melting point compilation (Tetko et al.; mined from patent text by program, amines drawn as free bases though some values may be those of a salt) are described below.

The term melting point denotes the temperature of the solid-liquid transition.

Consider `O=C1c2ccccc2C(=O)N1C(Cc1ccccc1)C[PH](=O)O` (stereo not drawn), for which the melting point is 127 to 130 °C.

`Cc1ccccc1C(=O)Nc1ccc(C(=O)N2Cc3ccnn3Cc3ccccc32)c(Cl)c1` showed a melting point of 241 to 244 °C.

Consider `CCCCc1oc2ccc(-c3nc(C)no3)cc2c1C(=O)c1ccc(OCCCBr)cc1`, for which the melting point lay within 85 to 87 °C.

In turn, `Cn1c(C#N)ccc1CC(=O)O` displayed a melting point of 125 to 126 °C.

`O=[N+]([O-])c1ccc(Br)cc1-c1cc(-c2ccc(Br)cc2)on1` showed a melting point of 184 to 185 °C.

The molecule `COc1ccc(CNc2ccccc2C(=O)Nc2cccc(C(F)(F)F)c2C)cn1` returned a melting point of 134 to 135 °C.

Take `CC(O)(C(=O)Nc1ccc(Cl)cc1)c1ccc(F)cc1Cl` (stereo not drawn): the melting point amounted to 167 °C.

`COc1ccc(N/C(SC)=C(\C#N)C(N)=O)cc1O` returned a melting point of 160 to 164 °C.

`CC(C)(O)CCCCc1ccc(C=Cc2ccc(CO)c(CO)c2)cc1` yielded a melting point of 102 to 104 °C.

Molecule `CCCN(CCC)CCCOc1ccc(-c2noc(-c3ccccc3)n2)cc1` displayed a melting point of 55 to 57 °C.

Take `CC(C)Oc1ccc2c(Cl)nc(C(=O)NCCO)c(O)c2c1`: the melting point is 155 to 156 °C.

Molecule `Cc1cncn1CC(=O)CCc1ccc(Cl)cc1` yielded a melting point of 227 to 228 °C.

`C=C(C)Cc1cc(C=O)cc(OCC)c1O` yielded a melting point of 85 to 86 °C.

Take `CC(C)C(c1cncnc1C(F)(F)F)N1CCN(c2ccccc2)C1=O` (stereo not drawn): the melting point fell in the range of 126 to 128 °C.

In turn, `Oc1ccc(Br)cc1C(O)c1ccc2ccccc2c1` (stereo not drawn) displayed a melting point of 115 to 117 °C.

In turn, `CC(C)(C)OC(=O)CNC(=O)CC(C1CCCCC1)C1CCCCC1` registered a melting point of 72 to 74 °C.

Take `CC(O)C1C(=O)N2C1=CC(=O)C2C(=O)OCc1ccc([N+](=O)[O-])cc1` (stereo not drawn): the melting point was in the range of 92 to 98 °C.

For `CN(C)CCNC(=O)Cc1ccc2ccn(C3CCN(CCc4ccc(F)cc4)CC3)c2c1`, the melting point fell in the range of 112 to 113 °C.

The molecule `CCc1cc(N(C)C(=O)N2CCN(c3cc(OC)cc(OC)c3)CC2)c(OC)nc1C` showed a melting point of 78 to 79 °C.

For `CCc1c(Sc2cc(Cl)cc(Cl)c2)c(CC#N)nn1CCO`, the melting point fell in the range of 84 to 85 °C.

Turning to `CCOC(=O)c1nc(C=Cc2ccc(Cl)cc2)oc1C`, the melting point lay within 105 to 106 °C.

In turn, `OCc1cccc(Nc2ncc3c(n2)-c2ccccc2[C@H](c2ccccc2F)C3)c1` showed a melting point of 158 to 159 °C.

In turn, `O=C(O)CC(=O)OCC(Cl)(Cl)Cl` had a melting point of 42 to 43 °C.

In turn, `C=CCc1ccc(C(NC(=O)OC(C)(C)C)C(=O)OC)cc1` (stereo not drawn) returned a melting point of 60.6 to 62 °C.

Turning to `COC(=O)c1c(OC(C)C)c(Br)c(Br)n1C`, the melting point fell in the range of 42 to 45 °C.

`COc1ccc2c(=O)n(S(=O)(=O)c3ccc(C)cc3)c(=O)[nH]c2c1` had a melting point of 228 to 231 °C.

Take `COC(=O)c1c(OC)ccc(NC(=O)C(F)(F)F)c1OC`: the melting point is 112 to 113 °C.

`COc1cc2c(cc1OC)C(CCN1CCN(c3cccc(Cl)c3)CC1)OCCC2` (stereo not drawn) registered a melting point of 125 to 126 °C.

In turn, `CCCc1cccc(-c2nc(C(C)C)n(C)n2)n1` gave a melting point of 48.6 °C.

`CCOC1=CCc2c(OC)ccc(OC)c2C1`: the melting point lay in the range of 102 to 103 °C.

As for `CC(C)C1C(=O)N(Cc2ccccc2)S(=O)(=O)N1C` (stereo not drawn), the melting point fell in the range of 52.5 to 54 °C.

Take `CCCn1nc(-c2ccc(O)c(F)c2)c2cccc(Cl)c21`: the melting point lay in the range of 134 to 135 °C.

As to `Cc1cc(-c2cc(C(F)(F)F)n3cnc(-c4cccnc4)c3n2)ccc1C(F)(F)F`, the melting point came to 173 °C.

In turn, `CCN1C(=O)C(C(=O)Nc2ccc(F)cc2)c2cc3c(cc21)CC(C)(C)O3` (stereo not drawn) showed a melting point of 160 to 162 °C.

Take `Cc1cc(N2CCOCC2)nc(N)c1N`: the melting point lay in the range of 97 to 108 °C.

Consider `N#Cc1cc2c(cc1F)OCC21C(=O)N(Cc2ncccc2C(F)(F)F)c2ccccc21` (stereo not drawn), for which the melting point is 209 to 211 °C.

Regarding `Cc1sc(S(=O)(=O)NC(C)(C)CO)cc1NC(=O)c1cnn2c(C(F)F)cc(-c3ccc(C(F)(F)F)cc3)nc12`, the melting point stood at 180 °C.

`CS(=O)(=O)c1ccc(-c2cnn(Cc3ccc(O)cc3)c(=O)c2-c2ccc(F)cc2)cc1` returned a melting point of 225 to 226 °C.

`NS(=O)(=O)c1ccc(NC(=O)[C@@H]2CCCN2C(=O)OCc2ccccc2)cc1`: the melting point was 165 to 166 °C.

With `O=Cc1cc(Br)cnc1Cl`, the melting point was 88 to 89 °C.

For `COC(=O)C(=Cc1cccc(-c2ccc(Cl)cc2)c1)NC(C)=O`, the melting point is 168 °C.

`O=c1[nH]c2ccc(CCN3CCN(c4cc(O)cc5cccnc45)CC3)cc2o1` registered a melting point of 200 °C.

In turn, `N=C(O)c1cc(C(O)=NCCO)c(C(=O)O)cc1C(=O)O` had a melting point of 279 to 280 °C.

Take `CCC(=O)NC[C@H]1CN(c2ccc3c(c2)C[C@@H](C)N3C=O)C(=O)O1`: the melting point is 118 to 119 °C.

On to `CSc1nc(P(=O)(c2ccccc2)c2ccccc2)cc(P(=O)(c2ccccc2)c2ccccc2)n1`, for which the melting point lay in the range of 221 to 222 °C.

The molecule `Clc1ccc(C=Cc2ccccc2)cc1` showed a melting point of 129 to 130 °C.

As to `CCN(CC)C(=O)COC(=O)c1cccc(NC(=O)C(CS)Cc2ccccc2)c1` (stereo not drawn), the melting point lay in the range of 160 to 163 °C.

On to `CC(=O)ONC(=N)c1ccc(-c2nc(C)c(C(=O)NC(C)C(O)(Cn3cncn3)c3ccc(F)cc3F)s2)cc1` (stereo not drawn), for which the melting point was 146 to 147 °C.

In the case of `COc1ccc(-c2ccc(C(F)(F)CC(CC(O)CSc3ccccc3)C(=O)O)cc2)cc1` (stereo not drawn), the melting point was 85 to 86 °C.

`CC(C)CCCOC1CCC2C3C(=O)C=C4CC(O[Si](C)(C)C(C)(C)C)CCC4(C)C3CCC12C` (stereo not drawn) registered a melting point of 143 to 145 °C.

In turn, `O=C(NCCCO)c1cccc(-c2cccc(Oc3cc(Cl)cc(Cl)c3)n2)c1` displayed a melting point of 101 to 102 °C.

As to `COC(=O)/C=C/c1ccc2nn(C)c(C)c2c1C(=O)OC`, the melting point lay in the range of 133 to 135 °C.

As to `CC(C)(C)C(O)C(Cn1cncn1)Oc1ccc(Cl)cc1` (stereo not drawn), the melting point came to 103 °C.

In turn, `Cc1ccc(C(=O)N[C@H]2CC[C@H](CCN3CCN(c4nccc5c4OCC5)CC3)CC2)cn1` had a melting point of 204 °C.

`COC(=O)c1cccc2cc(C)n(Cc3ccc(-c4ccccc4-c4nnn[nH]4)cc3)c12`: the melting point lay within 180 to 182 °C.

For the molecule `COc1cc(Cc2cc3cc(Cl)ccc3n2S(=O)(=O)c2ccc(C(C)C)cc2)ccc1C(=O)O`, the melting point turned out to be 67 °C.

`CC(C=Cc1ccc(C(=O)O)cc1)c1ccccc1` (stereo not drawn) yielded a melting point of 127 to 130 °C.

As to `CNC(=O)C(C)Oc1cc(-c2nn(C)c(C(F)(F)F)c2Cl)c(F)cc1Cl` (stereo not drawn), the melting point lay in the range of 134 to 136 °C.

In turn, `CS(=O)(=O)Nc1cc(C(c2cc(F)ccc2F)S(=O)(=O)c2ccc(F)cc2)c(Cl)cn1` (stereo not drawn) returned a melting point of 178 to 179 °C.

In the case of `CSC[C@@H](NC(=O)OCc1ccccc1)[C@@H]1COC(C)(C)O1`, the melting point is 70 to 71 °C.

As to `COC(=O)c1ccc(C=Cc2nc3ccccc3s2)cc1`, the melting point was 168 to 169 °C.

Consider `CC(=O)c1cc(Cl)sc1S(=O)(=O)Nc1ccc(CCO)cc1`, for which the melting point fell in the range of 112 to 116 °C.

`COc1ccc(N2CCN(c3c(C)c(C)c4c(c3C)C(O)(c3ccc(N(C)C)cc3)C(C)(C)O4)CC2)cc1` (stereo not drawn) displayed a melting point of 144 to 146 °C.

With `CNc1cccc2c(=O)c(C)c(-c3ccccc3)oc12`, the melting point fell in the range of 143 to 146 °C.

For the molecule `CC(C)c1nc(N(C(C)C)C(C)C)c([N+](=O)[O-])c(N(C(C)C)C(C)C)n1`, the melting point worked out at 45 °C.

For the molecule `CCOC(=O)/C(=C\Nc1cccc(OC)c1)c1ccccc1`, the melting point was in the range of 49 to 50 °C.

As to `CCCNC(=O)c1ccc(CCN2CC=C(c3c[nH]c(-c4ccc(F)cc4)c3-c3ccncc3)CC2)cc1`, the melting point lay in the range of 227 to 230 °C.

The molecule `C[C@@H](c1ccccc1)N1C[C@H]2CCOC(=O)[C@H]2C1` displayed a melting point of 86 to 87 °C.

The molecule `COCc1c(C(O)c2ccccc2)ncc2c1c1cc(OCc3ccccc3)ccc1n2S(=O)(=O)c1ccc(C)cc1` (stereo not drawn) displayed a melting point of 146 to 147 °C.

Regarding `Cn1nc(-c2ccc(Cl)cc2)cc1N=Cc1ccsc1`, the melting point came out at 130 °C.

`COc1ccccc1N(CC(=O)OC(C)(C)C)C(=O)CNC(=O)Nc1cccc(C)c1` returned a melting point of 171 °C.

Take `Cc1nc(-n2ccc(-c3ccc(Cl)cc3)cc2=O)sc1C(=O)NCc1ccccc1`: the melting point lay in the range of 265 to 267 °C.

For `Cc1cccc2c1C[C@H](C(=O)O)[C@@H]2C` (relative stereo), the melting point was in the range of 132 to 135 °C.

In turn, `Cc1nnc(-c2ccc3occ(-c4cccc(C#N)c4)c3c2)o1` showed a melting point of 204 to 205 °C.

On to `CN1CCc2cccc3c4c(n(c23)CC1)CCC4`, for which the melting point lay within 128 to 130 °C.

The molecule `C=CCSc1ccc(-c2ccccc2)nn1` showed a melting point of 96 to 98 °C.

In the case of `CNC(=O)c1ccccc1NC(=O)COc1ccc(C(C)=O)cc1`, the melting point lay in the range of 252 to 253 °C.

As for `NC(=NCC(F)(F)F)Nc1ccnc(SCCCC(=O)O)n1`, the melting point is 234 to 236 °C.

`CCCCc1nc2c(N)nc3ccccc3c2n1CCCCCCCCNS(C)(=O)=O`: the melting point is 121 to 124 °C.

`CCCCCCCCCCC1CNC(=O)O1` (stereo not drawn) displayed a melting point of 86 to 87 °C.

As to `CCCCc1nc2c(N)nc3ccc(O)cc3c2n1CCCCNS(=O)(=O)c1ccccc1`, the melting point was 219 to 223 °C.

With `O=C(Nc1ccc(Cl)cc1)Oc1ccc2c(c1)N(Cc1ccccc1)CCC2`, the melting point turned out to be 120 °C.

In turn, `Cn1cc(-c2cc(Oc3ccccc3)c(Cl)cc2F)c(=O)cc1C(F)(F)F` displayed a melting point of 159 to 161 °C.

Take `COCC(=O)Nc1cc2c(cc1Br)CCC2`: the melting point lay in the range of 84 to 86 °C.

For `CCOC(=O)c1cccc(NC(=O)c2cc(C(C)C)c(C(C)C)o2)c1`, the melting point was in the range of 144 to 145 °C.

For the molecule `O=C1c2cc(O)ccc2CN1c1ccc2sccc2c1`, the melting point lay within 226 to 228 °C.

For `O=C(Nc1ccc(-c2ccc(C(=O)N3CCN4CCC3CC4)o2)cc1)Nc1cccc(C(F)(F)F)c1`, the melting point came to 171 °C.

`CC(C)n1nc(-c2cnc(N)nc2-c2ccccc2Br)ccc1=O` showed a melting point of 203 to 205 °C.
